In ChEMBL document CHEMBL3217623, “Tacrine-mefenamic acid hybrids for inhibition of acetylcholinesterase” (Medchemcomm, 2011):
The source made the active and inactive calls. The rule behind the calls is not given here.

Tests used:
Acetylcholinesterase [1] = target: T1, Acetylcholinesterase (Torpedo californica, UniProt P04058); assay: Inhibition of Torpedo californica […] AChE using acetylthiocholine/DTNB as substrate assessed as ROS-induced enzyme inactivation preincubated for 10 mins followed by substrate addition measured every 30 secs for 20 mins in presence of horseradish peroxidase and H2O2; set-up: species or system Tetronarce californica
Acetylcholinesterase [2] = target: T1, Acetylcholinesterase; assay: Inhibition of Torpedo californica […] AChE using acetylthiocholine/DTNB as substrate preincubated for 10 mins followed by substrate addition measured every 30 secs for 30 mins by Ellmans method; set-up: species or system Tetronarce californica
[3] = target: Acetylcholinesterase (Torpedo californica) (UniProt P04058); assay: Non-competitive inhibition of Torpedo californica […] AChE using acetylthiocholine as substrate at 0.2 to 5 uM measured for 2 mins by Lineweaver-Burk plot analysis; settings: Tetronarce californica
Acetylcholinesterase (Torpedo californica), sequence (P04058 22-564 limits assumed): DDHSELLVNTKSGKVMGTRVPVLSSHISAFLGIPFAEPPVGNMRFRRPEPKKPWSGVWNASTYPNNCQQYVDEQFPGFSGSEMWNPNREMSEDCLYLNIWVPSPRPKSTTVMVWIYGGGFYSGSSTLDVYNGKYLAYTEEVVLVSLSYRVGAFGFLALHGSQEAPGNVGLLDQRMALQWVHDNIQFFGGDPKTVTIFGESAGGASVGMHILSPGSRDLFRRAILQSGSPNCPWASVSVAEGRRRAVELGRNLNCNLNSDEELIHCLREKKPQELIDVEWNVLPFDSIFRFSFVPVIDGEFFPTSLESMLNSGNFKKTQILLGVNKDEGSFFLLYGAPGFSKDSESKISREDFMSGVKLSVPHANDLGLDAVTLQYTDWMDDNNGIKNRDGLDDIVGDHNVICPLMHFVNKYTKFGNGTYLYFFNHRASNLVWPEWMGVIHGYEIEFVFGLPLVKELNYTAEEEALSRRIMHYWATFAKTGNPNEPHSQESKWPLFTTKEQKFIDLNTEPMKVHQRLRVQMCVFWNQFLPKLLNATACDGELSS

T1 sequence (P04058 whole entry): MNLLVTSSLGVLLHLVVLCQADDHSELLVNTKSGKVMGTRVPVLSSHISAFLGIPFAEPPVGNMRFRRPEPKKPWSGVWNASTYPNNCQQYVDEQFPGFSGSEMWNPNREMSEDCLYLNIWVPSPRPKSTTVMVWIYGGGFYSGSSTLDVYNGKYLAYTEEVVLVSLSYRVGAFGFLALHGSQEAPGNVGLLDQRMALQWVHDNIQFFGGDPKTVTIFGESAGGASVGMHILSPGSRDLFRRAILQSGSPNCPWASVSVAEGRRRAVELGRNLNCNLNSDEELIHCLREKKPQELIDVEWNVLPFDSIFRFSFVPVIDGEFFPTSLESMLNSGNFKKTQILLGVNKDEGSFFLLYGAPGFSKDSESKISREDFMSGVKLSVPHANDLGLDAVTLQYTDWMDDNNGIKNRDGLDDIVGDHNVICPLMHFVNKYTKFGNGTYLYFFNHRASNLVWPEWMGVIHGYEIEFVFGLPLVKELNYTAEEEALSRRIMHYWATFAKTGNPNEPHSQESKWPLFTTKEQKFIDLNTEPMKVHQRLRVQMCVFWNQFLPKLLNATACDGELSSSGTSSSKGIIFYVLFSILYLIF

## Cc1cccc(Nc2ccccc2C(=O)NCCCCCCCCCNc2c3c(nc4cc(Cl)ccc24)CCCC3)c1C
Acetylcholinesterase [1]
  IC50: 6.72 nM
Acetylcholinesterase [2]
  IC50: 0.00694 µM

## Cc1cccc(Nc2ccccc2C(=O)NCCCCCCCNc2c3c(nc4cc(Cl)ccc24)CCCC3)c1C
Acetylcholinesterase [1]
  IC50: 29.8 nM
Acetylcholinesterase [2]
  IC50: 1.38 µM

## Cc1cccc(Nc2ccccc2C(=O)NCCCCCC(=O)NCCCCCCCCNc2c3c(nc4cc(Cl)ccc24)CCCC3)c1C
Acetylcholinesterase [1]
  IC50: 8.67 nM
Acetylcholinesterase [2]
  IC50: 0.0801 µM

## Cc1cccc(Nc2ccccc2C(=O)NCC(=O)NCCCCNc2c3c(nc4ccccc24)CCCC3)c1C
Acetylcholinesterase [1]
  IC50: 53.6 nM
Acetylcholinesterase [2]
  IC50: 0.262 µM

## Cc1cccc(Nc2ccccc2C(=O)NCCCC(=O)NCCCCNc2c3c(nc4cc(Cl)ccc24)CCCC3)c1C
Acetylcholinesterase [1]
  IC50: 12.4 nM
Acetylcholinesterase [2]
  IC50: 0.0136 µM

## Cc1cccc(Nc2ccccc2C(=O)NCCC(=O)NCCCCCCCNc2c3c(nc4ccccc24)CCCC3)c1C
Acetylcholinesterase [1]
  IC50: 1.02 nM
Acetylcholinesterase [2]
  IC50: 0.0139 µM

## Cc1cccc(Nc2ccccc2C(=O)NCC(=O)NCCCNc2c3c(nc4ccccc24)CCCC3)c1C
Acetylcholinesterase [1]
  IC50: 47.5 nM
Acetylcholinesterase [2]
  IC50: 0.0873 µM

## Cc1cccc(Nc2ccccc2C(=O)NCCCCCCNc2c3c(nc4cc(Cl)ccc24)CCCC3)c1C
Acetylcholinesterase [1]
  IC50: 1.02 nM
Acetylcholinesterase [2]
  IC50: 7.23 µM

## Cc1cccc(Nc2ccccc2C(=O)NCCCCCC(=O)NCCCCCCCCNc2c3c(nc4ccccc24)CCCC3)c1C
Acetylcholinesterase [1]
  IC50: 6.26 nM
Acetylcholinesterase [2]
  IC50: 0.0187 µM

## Cc1cccc(Nc2ccccc2C(=O)NCCCC(=O)NCCCCCCCNc2c3c(nc4cc(Cl)ccc24)CCCC3)c1C
Acetylcholinesterase [1]
  IC50: 6.55 nM
Acetylcholinesterase [2]
  IC50: 0.00791 µM

## Cc1cccc(Nc2ccccc2C(=O)NCCCCCC(=O)NCCCCCCNc2c3c(nc4cc(Cl)ccc24)CCCC3)c1C
Acetylcholinesterase [1]
  IC50: 7.39 nM
Acetylcholinesterase [2]
  IC50: 0.00294 µM

## Cc1cccc(Nc2ccccc2C(=O)NCCCCCC(=O)NCCCNc2c3c(nc4cc(Cl)ccc24)CCCC3)c1C
Acetylcholinesterase [1]
  IC50: 7.85 nM
Acetylcholinesterase [2]
  IC50: 0.00165 µM

## Cc1cccc(Nc2ccccc2C(=O)NCCCCCC(=O)NCCCCCCCNc2c3c(nc4cc(Cl)ccc24)CCCC3)c1C
Acetylcholinesterase [1]
  IC50: 13.4 nM
Acetylcholinesterase [2]
  IC50: 0.0111 µM

## Cc1cccc(Nc2ccccc2C(=O)NCCCC(=O)NCCCCCCNc2c3c(nc4cc(Cl)ccc24)CCCC3)c1C
Acetylcholinesterase [1]
  IC50: 15.6 nM
Acetylcholinesterase [2]
  IC50: 0.0417 µM

## Cc1cccc(Nc2ccccc2C(=O)NCCCCCCCCCCCCNc2c3c(nc4ccccc24)CCCC3)c1C
Acetylcholinesterase [1]
  IC50: 6.94 nM
Acetylcholinesterase [2]
  IC50: 0.0509 µM

## Cc1cccc(Nc2ccccc2C(=O)NCCCC(=O)NCCCCNc2c3c(nc4ccccc24)CCCC3)c1C
Acetylcholinesterase [1]
  IC50: 14.6 nM
Acetylcholinesterase [2]
  IC50: 0.0897 µM

## Cc1cccc(Nc2ccccc2C(=O)NCC(=O)NCCCCCCCNc2c3c(nc4ccccc24)CCCC3)c1C
Acetylcholinesterase [1]
  IC50: 15.3 nM
Acetylcholinesterase [2]
  IC50: 0.00555 µM

## CN(C)C(=O)Oc1cccc([N+](C)(C)C)c1 [NEOSTIGMINE]
Acetylcholinesterase [2]
  IC50: 0.0046 µM

## Cc1cccc(Nc2ccccc2C(=O)NCCCCCCCNc2c3c(nc4ccccc24)CCCC3)c1C
Acetylcholinesterase [1]
  IC50: 25.2 nM
Acetylcholinesterase [2]
  IC50: 0.00139 µM

## Cc1cccc(Nc2ccccc2C(=O)NCCCCCCCCCCNc2c3c(nc4cc(Cl)ccc24)CCCC3)c1C
Acetylcholinesterase [1]
  IC50: 1.85 nM
Acetylcholinesterase [2]
  IC50: 0.000776 µM

## Cc1cccc(Nc2ccccc2C(=O)NCCC(=O)NCCCCNc2c3c(nc4ccccc24)CCCC3)c1C
Acetylcholinesterase [1]
  IC50: 2.43 nM
Acetylcholinesterase [2]
  IC50: 0.426 µM

## Cc1cccc(Nc2ccccc2C(=O)NCCCCCC(=O)NCCCCNc2c3c(nc4ccccc24)CCCC3)c1C
Acetylcholinesterase [1]
  IC50: 34 nM
Acetylcholinesterase [2]
  IC50: 1.86 µM

## Cc1cccc(Nc2ccccc2C(=O)NCCC(=O)NCCCNc2c3c(nc4ccccc24)CCCC3)c1C
Acetylcholinesterase [1]
  IC50: 7.92 nM
Acetylcholinesterase [2]
  IC50: 3.8 µM

## Cc1cccc(Nc2ccccc2C(=O)NCCCC(=O)NCCCNc2c3c(nc4cc(Cl)ccc24)CCCC3)c1C
Acetylcholinesterase [1]
  IC50: 1.03 nM
Acetylcholinesterase [2]
  IC50: 0.00713 µM

## Cc1cccc(Nc2ccccc2C(=O)NCCCCCCCCCNc2c3c(nc4ccccc24)CCCC3)c1C
Acetylcholinesterase [1]
  IC50: 15.1 nM
Acetylcholinesterase [2]
  IC50: 0.00154 µM

## Cc1cccc(Nc2ccccc2C(=O)NCC(=O)NCCCNc2c3c(nc4cc(Cl)ccc24)CCCC3)c1C
Acetylcholinesterase [1]
  IC50: 3.1 nM
Acetylcholinesterase [2]
  IC50: 0.0281 µM

## Cc1cccc(Nc2ccccc2C(=O)NCC(=O)NCCCCCCNc2c3c(nc4ccccc24)CCCC3)c1C
Acetylcholinesterase [1]
  IC50: 54.8 nM
Acetylcholinesterase [2]
  IC50: 0.0183 µM

## Clc1c2c(nc3ccccc13)CCCC2
Acetylcholinesterase [1]
  IC50: 83.9 nM
Acetylcholinesterase [2]
  IC50: > 25 µM

## Cc1cccc(Nc2ccccc2C(=O)NCCCCCC(=O)NCCCCCCNc2c3c(nc4ccccc24)CCCC3)c1C
Acetylcholinesterase [1]
  IC50: 34 nM
Acetylcholinesterase [2]
  IC50: 1.44 µM

## Cc1cccc(Nc2ccccc2C(=O)NCCC(=O)NCCCCCCCCNc2c3c(nc4ccccc24)CCCC3)c1C
Acetylcholinesterase [1]
  IC50: 4.07 nM
Acetylcholinesterase [2]
  IC50: 0.00858 µM

## Cc1cccc(Nc2ccccc2C(=O)NCCCCCC(=O)NCCCCCCCNc2c3c(nc4ccccc24)CCCC3)c1C
Acetylcholinesterase [1]
  IC50: 3.66 nM
Acetylcholinesterase [2]
  IC50: 0.0036 µM

## Cc1cccc(Nc2ccccc2C(=O)NCCCCCCCCCCNc2c3c(nc4ccccc24)CCCC3)c1C
Acetylcholinesterase [1]
  IC50: 0.908 nM
Acetylcholinesterase [2]
  IC50: 0.385 µM
[3]
  inhibition: Active

## Cc1cccc(Nc2ccccc2C(=O)NCCC(=O)NCCCCCCNc2c3c(nc4cc(Cl)ccc24)CCCC3)c1C
Acetylcholinesterase [1]
  IC50: 2.96 nM
Acetylcholinesterase [2]
  IC50: 0.00114 µM

## Cc1cccc(Nc2ccccc2C(=O)NCCC(=O)NCCCCCCCNc2c3c(nc4cc(Cl)ccc24)CCCC3)c1C
Acetylcholinesterase [1]
  IC50: 10 nM
Acetylcholinesterase [2]
  IC50: 0.00667 µM

## Cc1cccc(Nc2ccccc2C(=O)NCC(=O)NCCCCNc2c3c(nc4cc(Cl)ccc24)CCCC3)c1C
Acetylcholinesterase [1]
  IC50: 89.4 nM
Acetylcholinesterase [2]
  IC50: 0.156 µM

## Cc1cccc(Nc2ccccc2C(=O)NCCCC(=O)NCCCCCCCCNc2c3c(nc4cc(Cl)ccc24)CCCC3)c1C
Acetylcholinesterase [1]
  IC50: 6.59 nM
Acetylcholinesterase [2]
  IC50: 0.017 µM

## Cc1cccc(Nc2ccccc2C(=O)NCCC(=O)NCCCCNc2c3c(nc4cc(Cl)ccc24)CCCC3)c1C
Acetylcholinesterase [1]
  IC50: 33 nM
Acetylcholinesterase [2]
  IC50: 2.47 µM

## Cc1cccc(Nc2ccccc2C(=O)NCCCC(=O)NCCCNc2c3c(nc4ccccc24)CCCC3)c1C
Acetylcholinesterase [1]
  IC50: 23 nM
Acetylcholinesterase [2]
  IC50: 3.73 µM

## Cc1cccc(Nc2ccccc2C(=O)NCCCCCC(=O)NCCCCNc2c3c(nc4cc(Cl)ccc24)CCCC3)c1C
Acetylcholinesterase [1]
  IC50: 0.299 nM
Acetylcholinesterase [2]
  IC50: 0.0374 µM

## Cc1cccc(Nc2ccccc2C(=O)NCCCCCCCCNc2c3c(nc4cc(Cl)ccc24)CCCC3)c1C
Acetylcholinesterase [1]
  IC50: 1.49 nM
Acetylcholinesterase [2]
  IC50: 0.000495 µM

## Cc1cccc(Nc2ccccc2C(=O)NCCCC(=O)NCCCCCCNc2c3c(nc4ccccc24)CCCC3)c1C
Acetylcholinesterase [1]
  IC50: 29.9 nM
Acetylcholinesterase [2]
  IC50: 0.195 µM

## Cc1cccc(Nc2ccccc2C(=O)NCCC(=O)NCCCNc2c3c(nc4cc(Cl)ccc24)CCCC3)c1C
Acetylcholinesterase [1]
  IC50: 21.3 nM
Acetylcholinesterase [2]
  IC50: 0.0203 µM

## Cc1cccc(Nc2ccccc2C(=O)NCCCCCCCCNc2c3c(nc4ccccc24)CCCC3)c1C
Acetylcholinesterase [1]
  IC50: 0.045 nM
Acetylcholinesterase [2]
  IC50: 0.0755 µM

## Cc1cccc(Nc2ccccc2C(=O)NCCCC(=O)NCCCCCCCNc2c3c(nc4ccccc24)CCCC3)c1C
Acetylcholinesterase [1]
  IC50: 44.6 nM
Acetylcholinesterase [2]
  IC50: 0.00809 µM

## Cc1cccc(Nc2ccccc2C(=O)NCCCCCC(=O)NCCCNc2c3c(nc4ccccc24)CCCC3)c1C
Acetylcholinesterase [1]
  IC50: 20.2 nM
Acetylcholinesterase [2]
  IC50: 0.811 µM

## Cc1cccc(Nc2ccccc2C(=O)NCC(=O)NCCCCCCNc2c3c(nc4cc(Cl)ccc24)CCCC3)c1C
Acetylcholinesterase [1]
  IC50: 3.46 nM
Acetylcholinesterase [2]
  IC50: 0.00765 µM

## Cc1cccc(Nc2ccccc2C(=O)NCCCCCCCCCCCCNc2c3c(nc4cc(Cl)ccc24)CCCC3)c1C
Acetylcholinesterase [1]
  IC50: 16.2 nM
Acetylcholinesterase [2]
  IC50: 2.36 µM

## Cc1cccc(Nc2ccccc2C(=O)NCCC(=O)NCCCCCCCCNc2c3c(nc4cc(Cl)ccc24)CCCC3)c1C
Acetylcholinesterase [1]
  IC50: 4.97 nM
Acetylcholinesterase [2]
  IC50: 0.0183 µM

## Cc1cccc(Nc2ccccc2C(=O)NCC(=O)NCCCCCCCCNc2c3c(nc4cc(Cl)ccc24)CCCC3)c1C
Acetylcholinesterase [1]
  IC50: 18.1 nM
Acetylcholinesterase [2]
  IC50: 0.0398 µM

## Cc1cccc(Nc2ccccc2C(=O)NCCCC(=O)NCCCCCCCCNc2c3c(nc4ccccc24)CCCC3)c1C
Acetylcholinesterase [1]
  IC50: 14.6 nM
Acetylcholinesterase [2]
  IC50: 0.0174 µM

## Cc1cccc(Nc2ccccc2C(=O)NCCC(=O)NCCCCCCNc2c3c(nc4ccccc24)CCCC3)c1C
Acetylcholinesterase [1]
  IC50: 40.2 nM
Acetylcholinesterase [2]
  IC50: 0.985 µM

## Cc1cccc(Nc2ccccc2C(=O)O)c1C [MEFENAMIC ACID]
Acetylcholinesterase [1]
  IC50: 6120 nM
Acetylcholinesterase [2]
  IC50: > 1250 µM

## Cc1cccc(Nc2ccccc2C(=O)NCC(=O)NCCCCCCCCNc2c3c(nc4ccccc24)CCCC3)c1C
Acetylcholinesterase [1]
  IC50: 17.2 nM
Acetylcholinesterase [2]
  IC50: 0.0033 µM

## Cc1cccc(Nc2ccccc2C(=O)NCC(=O)NCCCCCCCNc2c3c(nc4cc(Cl)ccc24)CCCC3)c1C
Acetylcholinesterase [1]
  IC50: 0.009 nM
Acetylcholinesterase [2]
  IC50: 0.000418 µM

## Cc1cccc(Nc2ccccc2C(=O)NCCCCCCNc2c3c(nc4ccccc24)CCCC3)c1C
Acetylcholinesterase [1]
  IC50: 0.129 nM
Acetylcholinesterase [2]
  IC50: 0.00224 µM

## CN(C)C(=O)Oc1ccc[n+](C)c1 [PYRIDOSTIGMINE]
Acetylcholinesterase [2]
  IC50: 0.082 µM

## Clc1ccc2c(Cl)c3c(nc2c1)CCCC3
Acetylcholinesterase [2]
  IC50: > 50 µM
